Results on 10 compounds are retold here after ChEMBL document CHEMBL4823314, “Design, synthesis and biological evaluation of novel acridine and quinoline derivatives as tubulin polymerization inhibitors with anticancer activities” (Bioorg Med Chem, 2021).

Activity calls are given as the source filed them. No cut-off for these calls is given here.

One may read the IC50 as the midpoint of a concentration-inhibition curve.

Assay [1] has as its system B16-F10. The assay can be described thus: Antiproliferative activity against mouse B16-F10 cells assessed as reduction in cell viability measured after 48 hrs by MTT assay. The class given is functional, cell-based. The note with it: B16-F10, 48 h.
A short description of assay [2]: Inhibition of pig brain tubulin polymerization by spectrophotometric method. The class given is tissue-based, Sus scrofa.
Assay [3] relates to HeLa. The assay can be described thus: cells. Conditions: Homo sapiens, 48 h.
Description: Antiproliferative activity against human HeLa cells assessed as reduction in cell viability measured after 48 hrs by MTT assay
Assay [4] deals with MCF7. The assay can be described thus: cells. Conditions: Homo sapiens, MCF7, 48 h.
Description: Antiproliferative activity against human MCF7 cells assessed as reduction in cell viability measured after 48 hrs by MTT assay
Assay [5] deals with HepG2. As to the kind of experiment: Antiproliferative activity against human HepG2 cells assessed as reduction in cell viability measured after 48 hrs by MTT assay. Format: functional, cell-based. Conditions: HepG2, 48 h. A general note: Formazan colour is commonly taken as a measure of viable cells.
Assay [6] relates to B16-F10. As to the kind of experiment: Antiproliferative activity against mouse B16-F10 cells assessed as reduction in cell viability incubated for 48 hrs by MTT assay. The class given is functional, cell-based. The note with it: dose 2.5-10 µM.
For assay [7], the system named is HepG2. As to the kind of experiment: Antiproliferative activity against human HepG2 cells assessed as reduction in cell viability incubated for 48 hrs by MTT assay. The class given is functional, cell-based. Conditions: dose 2.5-10 µM.
For assay [8], the system named is HeLa. As to the kind of experiment: Antiproliferative activity against human HeLa cells assessed as reduction in cell viability incubated for 48 hrs by MTT assay. The class given is functional, cell-based. Conditions: dose 2.5-10 µM.
Assay [9] concerns MCF7. The assay can be described thus: Antiproliferative activity against human MCF7 cells assessed as reduction in cell viability incubated for 48 hrs by MTT assay. The note with it: dose 2.5-10 µM. The class given is functional, cell-based.
Assay [10] concerns B16-F10. As to the kind of experiment: Antiproliferative activity against mouse B16-F10 cells assessed as reduction in cell viability at 0.5 uM by MTT assay. Format: functional, cell-based. The note with it: time 12-72 hrs, TDE = time-dependent effect.
For assay [11], the system named is HepG2. The assay can be described thus: Antiproliferative activity against human HepG2 cells assessed as reduction in cell viability at 0.5 uM by MTT assay. Format: functional, cell-based. The note with it: time 12-72 hrs, TDE = time-dependent effect.
Assay [12] concerns HeLa. As to the kind of experiment: Antiproliferative activity against human HeLa cells assessed as reduction in cell viability at 0.5 uM by MTT assay. Conditions: time 12-72 hrs, TDE = time-dependent effect. Format: functional, cell-based.
Assay [13] concerns MCF7. As to the kind of experiment: Antiproliferative activity against human MCF7 cells assessed as reduction in cell viability at 0.5 uM by MTT assay. Format: functional, cell-based. Conditions: time 12-72 hrs, TDE = time-dependent effect.
The test system of assay [14] is HepG2. As to the kind of experiment: Inhibition of colony formation in human HepG2 cells incubated for 24 hrs by crystal violet staining based analysis. Conditions: dose 0.1-1 µM. Format: functional, cell-based.
For a further assay, the species on record is Sus scrofa. As to the kind of experiment: Inhibition of pig brain tubulin polymerization measured upto 20 mins by spectrophotometric method. Conditions: dose 3-100 µM, time min <=20.
Assay [15] deals with HepG2. The assay can be described thus: Antimigratory activity in human HepG2 cells assessed as inhibition of cell migration incubated for 24 hrs by scratch wound healing assay. The note with it: dose 0.1-1 µM. Format: functional, cell-based.
Assay [16] has as its system HepG2. As to the kind of experiment: Cell cycle arrest in human HepG2 cells assessed as accumulation at G1 phase at 0.5 uM measured after 48 hrs by propidium iodide staining based flow cytometry analysis (reference value: 56.11%). Format: functional.
Assay [17] relates to HepG2. The assay can be described thus: Cell cycle arrest in human HepG2 cells assessed as accumulation at G1 phase at 1 uM measured after 48 hrs by propidium iodide staining based flow cytometry analysis (reference value: 56.11%). Format: functional. Background: In flow cytometry, cells or beads pass a laser one at a time.
The subject of assay [18] is HepG2. As to the kind of experiment: Cell cycle arrest in human HepG2 cells assessed as accumulation at G1 phase at 5 uM measured after 48 hrs by propidium iodide staining based flow cytometry analysis (reference value: 56.11%). The class given is functional.
In assay [19] the test system is HepG2. As to the kind of experiment: Cell cycle arrest in human HepG2 cells assessed as accumulation at S phase at 0.5 uM measured after 48 hrs by propidium iodide staining based flow cytometry analysis (reference value: 34.13%). The class given is functional.
For assay [20], the system named is HepG2. The assay can be described thus: Cell cycle arrest in human HepG2 cells assessed as accumulation at S phase at 1 uM measured after 48 hrs by propidium iodide staining based flow cytometry analysis (reference value: 34.13%). The class given is functional.
For assay [21], the system named is HepG2. The assay can be described thus: Cell cycle arrest in human HepG2 cells assessed as accumulation at S phase at 5 uM measured after 48 hrs by propidium iodide staining based flow cytometry analysis (reference value: 34.13%). Format: functional.
For assay [22], the system named is HepG2. As to the kind of experiment: Cell cycle arrest in human HepG2 cells assessed as accumulation at G2/M phase at 0.5 uM measured after 48 hrs by propidium iodide staining based flow cytometry analysis (reference value: 9.27%). Format: functional.
For assay [23], the system named is HepG2. As to the kind of experiment: Cell cycle arrest in human HepG2 cells assessed as accumulation at G2/M phase at 1 uM measured after 48 hrs by propidium iodide staining based flow cytometry analysis (reference value: 9.27%). Format: functional.
Assay [24] has as its system HepG2. As to the kind of experiment: Cell cycle arrest in human HepG2 cells assessed as accumulation at G2/M phase at 5 uM measured after 48 hrs by propidium iodide staining based flow cytometry analysis (reference value: 9.27%). Format: functional.
For assay [25], the system named is HepG2. As to the kind of experiment: Induction of apoptosis in human HepG2 cells assessed as necrotic cells at 0.5 uM measured after 48 hrs by AnnexinV-FITC/propidium iodide staining based flow cytometry (reference value: 1.05%). The class given is functional.
Assay [26] deals with HepG2. The assay can be described thus: Induction of apoptosis in human HepG2 cells assessed as necrotic cells at 1 uM measured after 48 hrs by AnnexinV-FITC/propidium iodide staining based flow cytometry (reference value: 1.05%). Format: functional.
The test system of assay [27] is HepG2. The assay can be described thus: Induction of apoptosis in human HepG2 cells assessed as necrotic cells at 5 uM measured after 48 hrs by AnnexinV-FITC/propidium iodide staining based flow cytometry (reference value: 1.05%). The class given is functional.
Assay [28] has as its system HepG2. The assay can be described thus: Induction of apoptosis in human HepG2 cells assessed as late apoptotic cells at 0.5 uM measured after 48 hrs by AnnexinV-FITC/propidium iodide staining based flow cytometry (reference value: 5.93%). Format: functional.
Assay [29] relates to HepG2. The assay can be described thus: Induction of apoptosis in human HepG2 cells assessed as late apoptotic cells at 1 uM measured after 48 hrs by AnnexinV-FITC/propidium iodide staining based flow cytometry (reference value: 5.93%). The class given is functional.
In assay [30] the test system is HepG2. As to the kind of experiment: Induction of apoptosis in human HepG2 cells assessed as late apoptotic cells at 5 uM measured after 48 hrs by AnnexinV-FITC/propidium iodide staining based flow cytometry (reference value: 5.93%). Format: functional.
The subject of assay [31] is HepG2. As to the kind of experiment: Induction of apoptosis in human HepG2 cells assessed as viable cells at 0.5 uM measured after 48 hrs by AnnexinV-FITC/propidium iodide staining based flow cytometry (reference value: 82.2%). The note with it: read-out: Activity. Format: functional.
The subject of assay [32] is HepG2. As to the kind of experiment: Induction of apoptosis in human HepG2 cells assessed as viable cells at 1 uM measured after 48 hrs by AnnexinV-FITC/propidium iodide staining based flow cytometry (reference value: 82.2%). The note with it: read-out: Activity. The class given is functional.
For assay [33], the system named is HepG2. As to the kind of experiment: Induction of apoptosis in human HepG2 cells assessed as viable cells at 5 uM measured after 48 hrs by AnnexinV-FITC/propidium iodide staining based flow cytometry (reference value: 82.2%). The note with it: read-out: Activity. Format: functional.
In assay [34] the test system is HepG2. The assay can be described thus: Induction of apoptosis in human HepG2 cells assessed as early apoptotic cells at 0.5 uM measured after 48 hrs by AnnexinV-FITC/propidium iodide staining based flow cytometry (reference value: 10.8%). Format: functional.
The subject of assay [35] is HepG2. The assay can be described thus: Induction of apoptosis in human HepG2 cells assessed as early apoptotic cells at 1 uM measured after 48 hrs by AnnexinV-FITC/propidium iodide staining based flow cytometry (reference value: 10.8%). The class given is functional.
For assay [36], the system named is HepG2. The assay can be described thus: Induction of apoptosis in human HepG2 cells assessed as early apoptotic cells at 5 uM measured after 48 hrs by AnnexinV-FITC/propidium iodide staining based flow cytometry (reference value: 10.8%). The class given is functional.
Assay [37] relates to HepG2. The assay can be described thus: Inhibition of colony formation in human HepG2 cells at 1 uM incubated for 24 hrs by crystal violet staining based analysis. The class given is functional, cell-based.
Assay [38] deals with HepG2. As to the kind of experiment: Disruption of microtubule network in human HepG2 cells incubated for 12 hrs by DAPI staining based immunofluorescence analysis. The class given is functional, cell-based. Conditions: dose 0.1-1 µM.

Regarding `COc1ccc(/C=C\c2cc(OC)c(OC)c(OC)c2)cc1O` [COMBRETASTATIN A4], the concentration for half-maximal inhibition (IC50) in the assay with B16-F10 [1] is 0.014 µM; in [2], 1.84 µM; with HeLa [3], 0.023 µM; in the assay with MCF7 [4] it was 0.019 µM.
`COc1ccc(N(C)c2cccc3ncccc23)cc1`: the IC50 in the assay with B16-F10 [1] turned out to be 0.563 µM; with HepG2 [5] it was 0.261 µM; in [2], 12.4 µM; in the assay with HeLa [3] it was 2.05 µM; in the assay on MCF7 [4], 0.609 µM. The Activity result is “Dose-Dependent Effect” in the assay on B16-F10 [6]; “Dose-Dependent Effect” in the assay with HepG2 [7]; “Dose-Dependent Effect” with HeLa [8]; “Dose-Dependent Effect” in the assay on MCF7 [9]; “Tde” in the assay on B16-F10 [10]; “Tde” in the assay on HepG2 [11]. The Activity entry in the assay with HeLa [12] is “Tde”; in the assay on MCF7 [13], “Tde”; in the assay with HepG2 [15], “Dose-Dependent Effect”; in the assay with HepG2 [16], 42.3%; with HepG2 [17] it was 32.66%; in the assay with HepG2 [18], 38%. The Activity in the assay with HepG2 [19] is 38.55%; with HepG2 [20] it was 38.01%; in the assay with HepG2 [21], 30.88%; in the assay with HepG2 [22], 17.46%; in the assay with HepG2 [23], 27.32%; in the assay with HepG2 [24] it was 32.13%. Further, the Activity is recorded as 2.58% in the assay with HepG2 [25]; 1.38% in the assay on HepG2 [26]; 2.5% in the assay on HepG2 [27]; 23.3% with HepG2 [28]; 28.5% with HepG2 [29]; 39.4% in the assay on HepG2 [30]. In addition, the Activity came out at 48.9% with HepG2 [34], 59.6% with HepG2 [35] and 38.8% with HepG2 [36]. For the same compound, the inhibition entry with HepG2 [14] and in the assay listed under Sus scrofa was “Dose-Dependent Effect” in each case. The viability at 0.5 µM in the assay with HepG2 [31] was 25.2%. Moreover, the viability at 1 µM with HepG2 [32] was 10.6%. Moreover, the viability at 5 µM with HepG2 [33] came out at 19.3%. In the assay with HepG2 [37], the inhibition entry was “Active”. Besides, in the assay on HepG2 [38], the result was Active.
`CCCCN(c1ccc(OC)cc1)c1ccnc2cc(Cl)ccc12`: the IC50 in the assay with B16-F10 [1] amounted to 6.84 µM; with HepG2 [5], 5.69 µM; in the assay on HeLa [3] it was 6.47 µM; in the assay on MCF7 [4] it was 7.12 µM.
The matching figures for `CN(c1ccc(C#N)cc1)c1cccc2ncccc12`: 25.2 µM, 28.7 µM, 36.5 µM and 30.9 µM.
On the same counts, the results for `COc1ccc(Nc2cccc3ncccc23)cc1` are 4.57 µM, 3.79 µM, 4.16 µM and 4.64 µM.
The matching figures for `COc1cc(N(C)c2ccnc(C)n2)cc(OC)c1OC`: 15.4 µM, 12.7 µM, 16.2 µM and 14.5 µM.
Take `CCCCN(c1cc(OC)c(OC)c(OC)c1)c1cccc2ncccc12`: the IC50 turned out to be 7.65 µM with B16-F10 [1], 7 µM in the assay on HepG2 [5], 9.29 µM in the assay on HeLa [3] and 8.33 µM in the assay on MCF7 [4].
For `COc1ccc(Nc2ccnc3cc(Cl)ccc23)cc1`, the IC50 was determined as 8.32 µM with B16-F10 [1], 6.98 µM in the assay with HepG2 [5], 8.79 µM in the assay on HeLa [3] and 9.69 µM in the assay on MCF7 [4].
As to `CCCCN(c1cc(OC)c(OC)c(OC)c1)c1c2ccc(Cl)cc2nc2ccc(OC)cc12`, the concentration for half-maximal inhibition (IC50) in the assay on B16-F10 [1] is 4.66 µM; with HepG2 [5], 3.5 µM; in the assay with HeLa [3], 6.08 µM; in the assay on MCF7 [4], 4.86 µM.
On the same counts, the results for `CCCCN(c1cc(OC)c(OC)c(OC)c1)c1ccnc2cc(Cl)ccc12` are 14.7 µM, 15.4 µM, 17.3 µM and 16.4 µM.
